This passage reports remaining activity, IC50 and melting point results from patent US20080039442A1, “Compounds With Kv4 Ion Channel Activity” (Devgen NV, priority 2004, published 2008).

For orientation: IC50 means the midpoint of a concentration-inhibition curve. What is called melting point is the temperature, or range, at which the solid turns liquid.

The first data set has as its target T1, human Kv4.3/KChIP2.2 potassium channel (Homo sapiens, UniProt Q9UK17).
T1 construct: expressed in transfected cells
T1 sequence (Q9UK17 1-655): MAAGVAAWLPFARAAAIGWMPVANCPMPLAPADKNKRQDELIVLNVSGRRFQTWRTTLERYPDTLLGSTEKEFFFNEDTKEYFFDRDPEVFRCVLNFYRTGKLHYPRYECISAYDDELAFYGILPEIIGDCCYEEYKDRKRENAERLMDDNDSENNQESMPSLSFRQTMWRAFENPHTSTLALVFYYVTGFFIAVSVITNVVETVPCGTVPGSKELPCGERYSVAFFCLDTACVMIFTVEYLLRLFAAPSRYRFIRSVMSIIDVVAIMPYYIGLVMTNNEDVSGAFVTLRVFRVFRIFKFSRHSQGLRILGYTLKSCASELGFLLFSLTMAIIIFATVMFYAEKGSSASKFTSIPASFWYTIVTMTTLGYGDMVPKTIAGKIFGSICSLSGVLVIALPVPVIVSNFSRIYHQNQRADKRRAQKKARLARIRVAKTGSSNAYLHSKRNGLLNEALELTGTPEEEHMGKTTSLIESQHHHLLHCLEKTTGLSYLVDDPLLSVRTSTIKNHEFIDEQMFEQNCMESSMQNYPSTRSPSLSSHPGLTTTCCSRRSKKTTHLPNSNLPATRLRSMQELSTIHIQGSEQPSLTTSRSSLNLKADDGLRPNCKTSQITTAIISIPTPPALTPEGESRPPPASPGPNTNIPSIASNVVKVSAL
T1 sequence (Q9NS61 1-270 partner): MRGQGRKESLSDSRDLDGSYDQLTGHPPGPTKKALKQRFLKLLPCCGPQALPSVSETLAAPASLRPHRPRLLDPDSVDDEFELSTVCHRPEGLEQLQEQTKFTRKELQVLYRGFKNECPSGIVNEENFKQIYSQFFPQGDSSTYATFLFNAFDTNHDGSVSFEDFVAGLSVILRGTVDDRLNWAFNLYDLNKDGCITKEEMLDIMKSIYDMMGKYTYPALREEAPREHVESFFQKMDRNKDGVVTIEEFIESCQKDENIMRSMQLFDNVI
Put plainly: Whole cell patch clamp, CHO-K1 cells stably expressing Kv4.3/KChIP2.2. The format is cell-based. The note with it: CHO-K1; 1 μM; read-out: Kv4.3 charge in %: remaining current measured after application of the compound and relative to the blank. How it is done: For this experiment, a recombinant CHO-K1 cell line stably expressing the human Kv4.3/KChIP2.2 potassium channel was used.
Protocol B: The cells were cultured in 94 mm culture dishes under the culturing conditions of 5% CO2 and 37° C. Subculturing was performed every 3-4 days, by removing the media and then rising the dish with 8 ml PBS (phosphate buffered saline). The PBS was removed and 1 ml Trypsin/EDTA was added to the cells. The cells were incubated about 2 min at 37° C. or 5 min at room temperature and then the dish was rapped to detach and singularize the cells. To inactivate the enzyme 9 ml of media was added and the solution was pipetted up and down to break up clumps of cells. Part of the suspension was then transferred to a new 94 mm dish and media was added to a final volume of 8 ml. If necessary the cells could be seeded onto 35 mm or 94 mm dishes (2 ml media per 35 mm dish and 8 ml media per 94 mm dish). The media was changed every 2-3 days. The media used was the solution for culturing the cells described above. For stable cells antibiotic G418, Hygromycin, Blasticidin, or Zeocin were not added.
The preparation of cells for electrophysiological experiments was performed as described in protocol C hereunder.
Protocol C: The transfected cells and stable cells were transferred from 35 mm cell culture dishes onto coverslips using cold PBS: The media was removed and 0.3 ml of PBS (4-10° C.) was added. The cells were incubated 5 min at room temperature. The dish was rapped to detach and singularize the cells and 1.7 ml media was added and the solution pipetted up and down to break up clumps of cells. Part of the cell suspension was then transferred to a 35 mm dish with coverslips and media. The transfected cells and stable cells could also be transferred from 35 mm cell culture dishes onto coverslips using trypsin: The media was removed and the dish rinsed with 3 ml PBS. The PBS was removed and 0.3 ml 1× Trypsin/EDTA was added and the cells incubated 5 min at room temperature. The dish was rapped to detach and singularize the cells and 1.7 ml media was added and the solution pipetted up and down to break up clumps of cells. Part of the cell suspension was then transferred to a 35 mm dish with coverslips and media.
10 mM stock solutions of the compounds were prepared in DMSO. Solutions of the compounds were prepared by dilution of stock solution in bath solution. If the required stock solution volume was theoretically below 1 μl, bath solutions with higher compound concentration were used for dilution. The maximal DMSO concentration during experiments was 0.1% (v/v).
For patch clamp experiments, the following solutions in demineralized water as vehicle were used (concentration in mM).
Bath (external) solution: 4 KCl, 135 NaCl, 2 CaCl2, 1 MgCl2, 10 D(+)-Glucose, 5 HEPES, pH 7.4 (NaOH).
Pipette (internal) solution: 130 KCl, 1 MgCl2, 10 EGTA, 5 Na2ATP, 5 HEPES, pH 7.4 (KOH).
Experiments were performed using a patch clamp set-up.
Measurements were performed at room temperature (20-25° C.). […] Each cell acted as its own control. The effect of compounds on Kv4.3/KChIP2.2 mediated currents was investigated at one concentration ([…]) with two replicates each (c=1, n=2).
The test protocols are illustrated in FIG. 1 and Table 4. […] Each test protocol consisted of 4 segments.
Subsequently, 14 test pulses (series 1; FIG. 1b and Table 4b) were applied at 0.1 Hz under constant superfusion with bath solution. The protocol was initiated by a voltage jump to −100 mV (400 ms) to achieve full inactivation. Then the Kv4.3/KChIP2.2 channels were transferred to the open state by depolarization to +40 mV for 300 milliseconds (activation). Only cells generating current amplitudes between 1 nA and 50 nA were used for the experimental procedure. No or negligible rundown was observed.
Then, 36 test pulses (series 2) were applied at 0.1 Hz under constant superfusion with the compound dissolved in bath solution. […]
(The patch-clamp technique gives a direct electrical read-out from membranes.)
For `Cc1c(C(=O)N2CCCCC2Cc2ccccc2)oc2ccc(Cl)cc12` (stereo not shown) [Compound 106, (2-benzyl-piperidin-1-yl)-(5-chloro-3-methyl-benzofuran-2-yl)-methanone], the remaining activity at 1 µM worked out at 59%. As to `O=C(NCc1ccccc1)c1cc2cc(Cl)ccc2o1` [Compound 47, 5-chloro-benzofuran-2-carboxylic benzylamide], the remaining activity at 1 µM was found to be 87%. `Cc1ccc(C2CCN(C(=O)c3cc4cc(Cl)ccc4o3)CC2)cc1` [Compound 98, (5-chloro-benzofuran-2-yl)-(4-p-tolyl-piperidin-1-yl)-methanone]: the remaining activity at 1 µM turned out to be 80%. Consider `COc1ccc(CNC(=O)c2cc3ccccc3o2)c(OC)c1` [Compound 12, benzofuran-2-carboxylic acid 2,4-dimethoxy-benzylamide], for which the remaining activity at 1 µM is 89%. On to `COc1ccc(CC(=O)c2cc3ccccc3o2)c(OC)c1` [Compound 23, 1-benzofuran-2-yl-2-(2,4-dimethoxy-phenyl)-ethanone], for which the remaining activity at 1 µM was 83%.

The same data set, now with this note: CHO-K1; 1 μM; read-out: Kv4.3 peak in %: remaining peak height measured after application of the compound and relative to the blank.
As to `Cc1c(C(=O)N2CCCCC2Cc2ccccc2)oc2ccc(Cl)cc12` (stereo not shown) [Compound 106, (2-benzyl-piperidin-1-yl)-(5-chloro-3-methyl-benzofuran-2-yl)-methanone], the remaining activity at 1 µM amounted to 87%. As to `O=C(NCc1ccccc1)c1cc2cc(Cl)ccc2o1` [Compound 47, 5-chloro-benzofuran-2-carboxylic benzylamide], the remaining activity at 1 µM is 95%. Same read-out and setting: the result for `Cc1ccc(C2CCN(C(=O)c3cc4cc(Cl)ccc4o3)CC2)cc1` [Compound 98, (5-chloro-benzofuran-2-yl)-(4-p-tolyl-piperidin-1-yl)-methanone] reads 97%; that for `COc1ccc(CNC(=O)c2cc3ccccc3o2)c(OC)c1` [Compound 12, benzofuran-2-carboxylic acid 2,4-dimethoxy-benzylamide], 97%. Regarding `COc1ccc(CC(=O)c2cc3ccccc3o2)c(OC)c1` [Compound 23, 1-benzofuran-2-yl-2-(2,4-dimethoxy-phenyl)-ethanone], the remaining activity at 1 µM is 99%.

The data set is the same for the next values; noted with them: Table 12; read-out: Kv4.3 charge IC50.
`Cc1ccc2[nH]cc(CCNC(=O)c3cc4cc(Cl)ccc4o3)c2c1` [Compound 3, 5-chloro-benzofuran-2-carboxylic acid [2-(5-methyl-1H-indole-3-yl)-ethyl]-amide]: the IC50 stood at 1330 nM.

`O=C(c1ccc(Cl)cc1)C1CCN(C(=O)c2cc3cc(Cl)ccc3o2)CC1` [Compound 7, (5-chloro-benzofuran-2-yl)-[4-(4-chloro-benzoyl)-piperidin-1-yl]-methanone]: the IC50 was determined as 890 nM.

Tested on in another data set: not given
Assay: not given
Conditions: not given
Turning to `COc1ccc(CNC(=O)c2ccc3ccccc3n2)c(OC)c1` [Compound 112, quinolin-2-carboxylic acid 2,4-dimethoxy-benzylamide], the melting point lay within 93.9 to 95.4 °C. The compound `Cc1ccc(C)c(CNC(=O)c2cc3cc(Cl)ccc3o2)c1` [Compound 90, 5-chloro-benzofuran-2-carboxylic acid 2,5-dimethyl-benzylamide] yielded a melting point of 123.1 to 124 °C. In turn, `CSc1ccc(CNC(=O)c2cc3cc(Cl)ccc3o2)cc1` [Compound 61, 5-chloro-benzofuran-2-carboxylic acid 4-methylsulfanyl-benzylamide] yielded a melting point of 159 to 161 °C. Compound `CS(=O)(=O)c1ccc(CNC(=O)c2cc3cc(Cl)ccc3o2)cc1` [Compound 79, 5-chloro-benzofuran-2-carboxylic acid 4-methanesulfonyl-benzylamide] gave a melting point of 187.6 to 189.1 °C.

`Cc1ccccc1CNC(=O)c1cc2cc(Cl)ccc2o1` [Compound 69, 5-chloro-benzofuran-2-carboxylic acid 2-methyl-benzylamide] came in with a melting point of 141.8 to 143 °C.

In turn, `O=C(NCc1ccc(F)c(C(F)(F)F)c1)c1cc2ccccc2o1` [Compound 50, benzofuran-2-carboxylic acid 4-fluoro-3-trifluoromethyl-benzylamide] came in with a melting point of 89.5 to 91.6 °C. `O=C(NCc1ccncc1)c1cc2cc(Cl)ccc2o1` [Compound 81, 5-chloro-benzofuran-2-carboxylic acid (pyridin-4-ylmethyl)-amide] registered a melting point of 163.1 to 166.2 °C. As to `O=C(c1ccc(F)cc1)C1CCN(C(=O)c2cc3cc(Cl)ccc3o2)CC1` [Compound 102], the melting point lay within 135 to 137.1 °C. In turn, `COc1ccc(CNC(=O)c2cn(Cc3ccccc3)c3ccccc23)c(OC)c1` registered a melting point of 118.8 to 120.4 °C. Regarding `COc1ccc(CNC(=O)c2cc3cc(Cl)ccc3[nH]2)c(OC)c1` [Compound 111, 5-chloro-1H-indole-2-carboxylic acid 2,4-dimethoxy-benzylamide], the melting point lay in the range of 205.7 to 209.3 °C. `COc1ccccc1C1CCN(C(=O)c2cc3cc(Cl)ccc3o2)CC1` [Compound 95, (5-chloro-benzofuran-2-yl)-[4-(2-methoxy-phenyl)-piperidin-1-yl]-methanone] showed a melting point of 146.1 to 147.4 °C. The compound `COC(=O)[C@H](NC(=O)c1cc2cc(Cl)ccc2o1)c1ccccc1` [Compound 84, (R)-[(5-chloro-benzofuran-2-carbonyl)-amino]-phenyl-acetic acid methyl ester] gave a melting point of 147.9 °C. Turning to `O=C(NCc1cccc(-c2ccccc2)c1)c1cc2cc(Cl)ccc2o1` [Compound 73, 5-chloro-benzofuran-2-carboxylic acid (biphenyl-3-ylmethyl)-amide], the melting point was 130.4 to 131 °C. Turning to `CC(NC(=O)c1cc2cc(Cl)ccc2o1)c1ccccc1` (stereo not shown) [Compound 57, 5-chloro-benzofuran-2-carboxylic acid (1-phenyl-ethyl)-amide], the melting point is 136.3 to 138.2 °C. Compound `O=C(NC1CCc2ccccc21)c1cc2cc(Cl)ccc2o1` (stereo not shown) [Compound 94, 5-chloro-benzofuran-2-carboxylic acid indan-1-ylamide] had a melting point of 161.4 to 164.1 °C. In turn, `Cc1cccc(CNC(=O)c2cc3cc(Cl)ccc3o2)c1` [Compound 70, 5-chloro-benzofuran-2-carboxylic acid 3-methyl-benzylamide] had a melting point of 148.4 to 149.4 °C.

Consider `COC(=O)c1cccc(CNC(=O)c2cc3cc(Cl)ccc3o2)c1` [Compound 65, 5-{[(5-chloro-benofuran-2-carbonyl)-amino]-methyl}-benzoic acid methyl ester], for which the melting point is 154 to 155.6 °C. As for `Cc1c(C(=O)NCc2ccc(OC(F)(F)F)cc2)sc2ccc(Cl)cc12` [Compound 117], the melting point lay within 159.2 to 162.4 °C. For the compound `O=C(c1cc2cc(Cl)ccc2o1)N1CCCC1c1ccc(F)cc1` (stereo not shown) [Compound 104, (5-chloro-benzofuran-2-yl)-[2-(4-fluoro-phenyl)-pyrrolidin-1-yl]-methanone], the melting point lay in the range of 104.4 to 106.1 °C.
